Laboratory results published in US10316035B2, “Triazolopyridine inhibitors of myeloperoxidase” (BRISTOL-MYERS SQUIBB COMPANY, priority 2015, dated 2019).

target: T1, myeloperoxidase (MPO) (Homo sapiens, UniProt P05164); experiment: MPO peroxidation assay (Amplex Red assay); format: biochemical; details: MPO peroxidation, potency range class; read-out: Amplex Red IC50
T1 sequence (P05164 49-745): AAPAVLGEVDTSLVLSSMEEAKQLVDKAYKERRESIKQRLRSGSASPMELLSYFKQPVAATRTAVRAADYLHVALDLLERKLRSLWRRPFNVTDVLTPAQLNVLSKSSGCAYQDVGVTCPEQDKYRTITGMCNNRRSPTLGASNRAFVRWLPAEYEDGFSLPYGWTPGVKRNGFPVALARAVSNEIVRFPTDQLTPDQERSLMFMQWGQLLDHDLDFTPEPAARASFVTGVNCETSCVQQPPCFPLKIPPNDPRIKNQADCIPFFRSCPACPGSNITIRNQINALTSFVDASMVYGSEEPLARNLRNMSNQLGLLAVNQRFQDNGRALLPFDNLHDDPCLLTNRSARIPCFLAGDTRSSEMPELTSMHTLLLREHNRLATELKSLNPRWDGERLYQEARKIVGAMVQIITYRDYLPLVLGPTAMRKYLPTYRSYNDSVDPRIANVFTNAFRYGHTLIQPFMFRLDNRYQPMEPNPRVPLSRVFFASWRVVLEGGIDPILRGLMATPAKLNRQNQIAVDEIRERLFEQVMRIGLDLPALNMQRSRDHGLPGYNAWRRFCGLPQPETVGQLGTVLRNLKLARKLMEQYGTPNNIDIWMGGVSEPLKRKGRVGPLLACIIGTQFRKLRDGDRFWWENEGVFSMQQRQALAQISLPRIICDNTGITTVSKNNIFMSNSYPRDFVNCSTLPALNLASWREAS
Description: MPO Peroxidation Assay (Amplex Red Assay)
MPO peroxidation activity was measured in 100 mM KPi (pH 7.4) by utilizing the non-fluorescent reagent Amplex Red (Invitrogen catalog # A12222) which can be oxidized to the highly fluorescent resorufin. Amplex Red is oxidized by the peroxidase action of MPO to resorufin. Reactions were carried out in 50 μL total volume by adding a 25 μL mixture of 200 pM myeloperoxidase and 40 nM H2O2(Sigma #349887) to 100 nL inhibitor in 100% DMSO in a 384 well Perkin Elmer Optiplate. Enzyme and compound were preincubated for ten minutes at room temperature.
After the ten minute preincubation, 25 μL of an Amplex Red mixture containing 200 μM Amplex Red and 10 mM H2O2 was added to the plate. Kinetic determinations were carried out immediately on a Perkin Elmer Envision (15 minute kinetic read, Ex: 535 nm, Em: 590 nm).
IC50 values were calculated by determining the slope of the linear portion of the kinetic trace ([…]), and using that calculated slope to determine % inhibition occurring at each concentration of inhibitor using the following equation:
[formula] where A=minimal Y value (activity level of inhibited sample), B=maximal Y value (activity level of uninhibited sample), C=Log IC50, D=Hill Slope, x=concentration of inhibitor. MPO Chlorination Assay (APF Assay)

Row | SMILES | IC50
1 | Nc1cc(OCc2ccc3ccccc3c2)c2nn[nH]c2n1 [Example 147, 7-(Naphthalen-2-ylmethoxy)-3H-[1,2,3]triazolo[4,5-b]pyridin-5-amine] | 101 to 999 nM
2 | CCC(F)(F)C(Oc1cc(N)nc2[nH]nnc12)c1ccccc1 (racemic) [Example 135, 7-(2,2-Difluoro-1-phenylbutoxy)-3H-[1,2,3]triazolo[4,5-b]pyridin-5-amine] | 101 to 999 nM
3 | CN1CCN(c2ncc(-c3ccc(COc4cc(N)nc5[nH]nnc45)c(C#N)c3)cn2)CC1 [Example 321, 2-(((5-amino-3H-[1,2,3]triazolo[4,5-b]pyridin-7-yl)oxy)methyl)-5-(2-(4-methylpiperazin-1-yl)pyrimidin-5-yl)benzonitrile] | 1 to 100 nM
4 | Nc1cc(OCc2c(F)cc(-c3ccc(F)nc3F)cc2F)c2nn[nH]c2n1 [Example 340, 7-((4-(2,6-difluoropyridin-3-yl)-2,6-difluorobenzyl)oxy)-3H-[1,2,3]triazolo[4,5-b]pyridin-5-amine] | 101 to 999 nM
5 | Nc1cc(OCc2ccc(-n3cnc(C(F)(F)F)c3)cc2OC(F)(F)F)c2nn[nH]c2n1 [Example 272, 7-((2-(trifluoromethoxy)-4-(4-(trifluoromethyl)-1H-imidazol-1-yl)benzyl)oxy)-3H-[1,2,3]triazolo[4,5-b] pyridin-5-amine] | 101 to 999 nM
6 | CC(Oc1cc(N)nc2[nH]nnc12)c1ccccc1F (stereo not shown) [Example 140, 7-(1-(2-Fluorophenyl)ethoxy)-3H-[1,2,3]triazolo[4,5-b]pyridin-5-amine] | 101 to 999 nM
7 | CN1CCN(c2ccc(-c3cccc(COc4cc(N)nc5[nH]nnc45)c3)cc2)CC1 [Example 99, 7-((4′-(4-Methylpiperazin-1-yl)biphenyl-3-yl)methoxy)-3H-[1,2,3]triazolo[4,5-b]pyridin-5-amine] | 101 to 999 nM
8 | CC(=O)Nc1cccc(C(C)Oc2cc(N)nc3[nH]nnc23)c1 (stereo not shown) [Example 144, N-(3-(1-(5-Amino-3H-[1,2,3]triazolo[4,5-b]pyridin-7-yloxy)ethyl)phenyl)acetamide] | 101 to 999 nM
9 | Nc1cc(OCc2ccc(Br)cc2OC(F)(F)F)c2nn[nH]c2n1 [Example 240, 7-((4-Bromo-2-(trifluoromethoxy)benzyl)oxy)-3H-[1,2,3]triazolo[4,5-b]pyridin-5-amine] | 1 to 100 nM
10 | N#Cc1cc(-n2cnc3ccccc32)ccc1COc1cc(N)nc2[nH]nnc12 [Example 274, 2-(((5-amino-3H-[1,2,3]triazolo[4,5-b]pyridin-7-yl)oxy)methyl)-5-(1H-benzo[d]imidazol-1-yl)benzonitrile] | 101 to 999 nM

Second part, the compound after the results:

Row | IC50 | SMILES
11 | 101 to 999 nM | CC(=O)N[C@H]1CCN(C(=O)c2ccc(COc3cc(N)nc4[nH]nnc34)c(Cl)c2)C1 [Example 212, (S)-N-(1-(4-((5-amino-3H-[1,2,3]triazolo[4,5-b]pyridin-7-yloxy)methyl)-3-chlorobenzoyl)pyrrolidin-3-yl)acetamide]
12 | 1 to 100 nM | CS(=O)(=O)c1cc(Cl)ccc1COc1cc(N)nc2[nH]nnc12 [Example 131, 7-(4-Chloro-2-(methylsulfonyl)benzyloxy)-3H-[1,2,3]triazolo[4,5-b]pyridin-5-amine]
13 | 1 to 100 nM | Nc1cc(OCc2ccc(C(=O)NC3CCC3)cc2Cl)c2nn[nH]c2n1 [Example 205, 4-((5-amino-3H-[1,2,3]triazolo[4,5-b]pyridin-7-yloxy)methyl)-3-chloro-N-cyclobutylbenzamide]
14 | 1 to 100 nM | Nc1cc(OCc2ccc(C(=O)NC3CCCCC3)cc2Cl)c2nn[nH]c2n1 [Example 221, 4-((5-amino-3H-[1,2,3]triazolo[4,5-b]pyridin-7-yloxy)methyl)-3-chloro-N-cyclohexylbenzamide]
15 | 1 to 100 nM | Nc1cc(OCc2cc(C(F)(F)F)ccc2Cl)c2nn[nH]c2n1 [Example 28, 7-(2-Chloro-5-(trifluoromethyl)benzyloxy)-3H-[1,2,3]triazolo[4,5-b]pyridin-5-amine]
16 | 1 to 100 nM | COCCNC(=O)c1ccc(F)c(COc2cc(N)nc3[nH]nnc23)c1 [Example 158, 3-((5-amino-3H-[1,2,3]triazolo[4,5-b]pyridin-7-yloxy)methyl)-4-fluoro-N-(2-methoxyethyl)benzamide]
